Earlier results in patent US11433096B2, “Ophthalmic formulation and methods of use” (priority 2020, dated 2022).

Columns and labels:
opacities = settings: in vivo
[1] = tested on: diabetes-induced cataract; settings: diabetic rats

| SMILES | opacities progression and opacity score (opacities) | cross-linked glycation, expression of the receptor of glycated products and oxidative stress indicators in the eye lens ([1]; supplemental zinc) | progression and maturation of diabetes-induced cataract ([1]; supplemental zinc) | reduced content of total and imbalanced proportion of soluble proteins in the lens ([1]; supplemental zinc) | concentration of heat shock protein in the eye lens, specifically α-crystallin ([1]; zinc supplementation) | elevated activity and expression of polyol pathway enzymes and molecules in the lens ([1]; zinc supplementation) |
| --- | --- | --- | --- | --- | --- | --- |
| O=S(=O)([O-])[O-].[Zn+2] [Zinc Sulfate] | retard opacities progression and lowering the opacity score | – | – | – | – | – |
| [Zn] [zinc] | – | alleviated | alleviated | effective in preventing | induced | counteracted |
